Source: patent US20020035124A1, “Insecticidal and miticidal compositions” (priority 1996, published 2002)

Assays:
[1] = test system: Kanzawa spider mite (Tetranychus kanzawai kishida) which are resistant to chlorfenapyr; test: Miticidal effect against female imagines of chlorfenapyr-resistant Kanzawa spider mite (leaf disk spray test); details: for LC50: single test compound, female imago, chlorfenapyr-resistant strain, mortality two days after spray treatment, probit analysis
Protocol: In this experiment, the miticidal effect against female imagines (adults) of Kanzawa spider mite (Tetranychus kanzawai kishida) which are resistant to chlorfenapyr is evaluated.
Round leaf disks (2 cm diameter) are cut out of a first leaf of kidney bean by a leaf punch and 4 sheets of the disks are placed on wet sanitary cotton in a plastic cup (8 cm diameter). On each leaf disk, 4 female imagines of Kanzawa spider mite (Tetranychus kanzawai kishida) which had acquired a strong resistance to chlorfenapyr are inoculated.
Each plastic cup is sprayed with 3.5 ml of a test solution with a rotary spray tower (Mizuho Scientific Co., Ltd.) and stored in a constant temperature chamber held at 25±1° C. (32 individuals are tested per concentration, 4-5 concentrations are evaluated per formulation and 2 performances are repeated). […] [formula] […]
The tested mite was a female image of the chlorfenapyr-resistant strain of Kanzawa spider mite which was obtained by a long artificial selection procedure against chlorfenapyr in a laboratory on a colony of Kanzawa spider mite which had been collected in the field.

[2] = test system: susceptible strain of spider mite; test: LC50 against a susceptible strain of spider mite; type: in vivo

Row | SMILES | LC50 [1] [ppm] | LC50 [2] | resistance to chlorfenapyr of the resistant strain versus susceptible strain ([1]; LC50 resistant strain relative to susceptible strain) [fold]
1 | CCC(C)c1ccccc1OC(=O)NC (centres unmarked) [BPMC, 2-sec-Butylphenyl-N-methylcarbamate] | 3200 | – | –
2 | CCOCn1c(-c2ccc(Cl)cc2)c(C#N)c(Br)c1C(F)(F)F [Chlorfenapyr, 4-Bromo-2-(4-chlorophenyl)-1-(ethoxymethyl)-5-(trifluoromethyl)pyrrole-3-carbonitrile] | 1500 | about 5 ppm | ~300
3 | CCSCc1ccccc1OC(=O)NC [Ethiofencarb, 2-(Ethylthiomethyl)phenyl methylcarbamate] | 2100 | – | –
